Test results as given in US8747362B2, “Microneedle device” (Hisamitsu Pharmaceutical Co., Inc, priority 2009, dated 2014).

How the values were obtained:
[1] = Viscosity measurement of carrier (coating agent) by micron-sample viscometer; format: physicochemical; conditions: 25° C., average of 10
Description: • Material: Polylactic acid having a weight average molecular weight of about 80,000, Height: 500 μm, Density: 625 needles/cm^2, Formulation area of a microneedle base: 1 cm^2/patch (b) Metal Mask Plate • Pitch: 400 μm, Mask thickness: 100 μm, Opening: square shape (one side: 250 μm) (c) Environmental Setting: Room Temperature (25° C.)
The concentration of octreotide acetate and the concentration of propylene glycol or glycerin were set as shown in Table 3 and Table 4, and the materials were set in a rotating/revolving mixer to prepare a carrier (a coating agent). The viscosity of the obtained carrier (the coating agent) was measured 10 times by use of a micron-sample viscometer (RHEOSENSE INC., Micron Sample-Viscometer/Rheometer-on-a-chip VROCTM); calculated average values are shown in. Table 3 and Table 4.

[2] = Content (amount deposited) of octreotide acetate per patch of microneedle device, BCA method; format: physicochemical; conditions: average of 10
Description: • Material: Polylactic acid having a weight average molecular weight of about 80,000, Height: 500 μm, Density: 625 needles/cm^2, Formulation area of a microneedle base: 1 cm^2/patch (b) Metal Mask Plate • Pitch: 400 μm, Mask thickness: 100 μm, Opening: square shape (one side: 250 μm) (c) Environmental Setting: Room Temperature (25° C.) The concentration of octreotide acetate and the concentration of propylene glycol or glycerin were set as shown in Table 3 and Table 4, and the materials were set in a rotating/revolving mixer to prepare a carrier (a coating agent). Application of the carrier (the coating agent) to microneedles was performed by a predetermined method. More specifically, the carrier the coating agent) was swept by a spatula to fill openings of a metal mask with the carrier. Microneedles (needles) were inserted in the openings thus filled, and then taken out therefrom, and subsequently, the carrier (the coating agent) thus applied on the microneedles was extracted by purified water. By a BCA method (an octreotide standard), the content (an amount deposited) of octreotide acetate per one patch (sheet) of a microneedle device was measured 10 times; calculated average values are shown in Table 3 and Table 4.

[3] = carrier: octreotide acetate 20 / glycerin 80 % by weight
[4] = carrier: octreotide acetate 20 / propylene glycol 80 % by weight
[5] = carrier: octreotide acetate 30 / glycerin 70 % by weight
[6] = carrier: octreotide acetate 35 / glycerin 65 % by weight
[7] = carrier: octreotide acetate 40 / glycerin 60 % by weight
[8] = carrier: octreotide acetate 40 / propylene glycol 60 % by weight
[9] = carrier: octreotide acetate 50 / glycerin 50 % by weight
[10] = carrier: octreotide acetate 50 / propylene glycol 50 % by weight
[11] = carrier: octreotide acetate 60 / glycerin 40 % by weight
[12] = carrier: octreotide acetate 60 / propylene glycol 40 % by weight
[13] = carrier: octreotide acetate 70 / propylene glycol 30 % by weight
[14] = carrier: octreotide acetate 80 / propylene glycol 20 % by weight

## C[C@@H](O)[C@@H]1NC(=O)[C@H](CCCCN)NC(=O)[C@@H](Cc2c[nH]c3ccccc23)NC(=O)[C@H](Cc2ccccc2)NC(=O)[C@@H](NC(=O)[C@H](N)Cc2ccccc2)CSSC[C@@H](C(=O)N[C@H](CO)[C@@H](C)O)NC1=O [Octreotide acetate, octreotide acetate]
[1]; [3]
  Viscosity Avg.: 2900 cps
[1]; [4]
  Viscosity Avg.: 200 cps
[1]; [5]
  Viscosity Avg.: 9000 cps
[1]; [6]
  Viscosity Avg.: 12000 cps
[1]; [7]
  Viscosity Avg.: 15000 cps
[1]; [8]
  Viscosity Avg.: 1600 cps
[1]; [9]
  Viscosity Avg.: 21000 cps
[1]; [10]
  Viscosity Avg.: 5400 cps
[1]; [11]
  Viscosity Avg.: 27000 cps
[1]; [12]
  Viscosity Avg.: 15000 cps
[1]; [13]
  Viscosity Avg.: 45000 cps
[1]; [14]
  Viscosity Avg.: 133000 cps
[2]; [3]
  Content Avg.: 6 μg/patch
[2]; [4]
  Content Avg.: 4 μg/patch
[2]; [5]
  Content Avg.: 39 μg/patch
[2]; [6]
  Content Avg.: 53 μg/patch
[2]; [7]
  Content Avg.: 89 μg/patch
[2]; [8]
  Content Avg.: 36 μg/patch
[2]; [9]
  Content Avg.: 169 μg/patch
[2]; [10]
  Content Avg.: 121 μg/patch
[2]; [11]
  Content Avg.: 149 μg/patch
[2]; [12]
  Content Avg.: 243 μg/patch
[2]; [13]
  Content Avg.: 237 μg/patch
[2]; [14]
  Content Avg.: 97 μg/patch
